Our source for the IC50 values is US20250340565A1, “CD73 INHIBITOR COMPOUNDS” (AdoRx Therapeutics Limited, priority 2022, published 2025).

The target of experiment [1] is CD73 in whole blood (Homo sapiens (Human), UniProt P21589). In words: Whole blood AMP Glo assay. The format is cell-based. The settings on record: whole blood of healthy volunteers, 10 μM AMP, 30 min pre-incubation, 15 min at 37° C., levamisole 1.5 mM. The procedure, abridged:
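Heparinised healthy-donor human whole blood, with 1.5 mM levamisole, preincubated with compound 30 min at 37 °C, then 10 μM AMP added for 15 min at 37 °C (0.6% DMSO). Remaining plasma AMP measured by AMP-Glo luminescence against a standard curve; IC50 from curve inflection point.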

Experiment [2] addresses human (h)CD73 (amino acids Trp27-Lys547) (Homo sapiens, UniProt P21589). The experiment in a line: CD73 inhibition assay (Malachite Green phosphate detection). The format is biochemical. The settings on record: 250 pM hCD73, 12.5 μM AMP, 20 min pre-incubation, absorbance 620 nm. Put shortly:
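250 pM hCD73 (Trp27-Lys547) preincubated 20 min with compound (1% DMSO) in 25 mM Tris pH 7.5, 5 mM MgCl2, 0.002% Tween20. Reaction with 12.5 μM AMP for 20 min at room temperature; phosphate detected by malachite green at 620 nm. Data normalised to no compound (0%) and 10 μM control compound (100%).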

For experiment [3], the target named is CD73 activity in U138-MG cells (Homo sapiens (Human), UniProt P21589). In words: U138-MG inhibition assay (inorganic phosphate from AMP, PiColorLock Gold). Format: cell-based. The settings on record: 100 μM AMP, 30 min pre-incubation, 1 hour at 37° C. The procedure, abridged:
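Washed U138-MG cells in HEPES-buffered saline (pH 7.4) preincubated 30 min at 37 °C with inhibitor, then given 100 μM AMP (final) for 1 h at 37 °C. Released phosphate in supernatant read by PiColorLock Gold; no-AMP wells define 100% inhibition. IC50 taken as inflection of sigmoidal curve.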

Chain of CD73 activity in U138-MG cells (P21589 27-574): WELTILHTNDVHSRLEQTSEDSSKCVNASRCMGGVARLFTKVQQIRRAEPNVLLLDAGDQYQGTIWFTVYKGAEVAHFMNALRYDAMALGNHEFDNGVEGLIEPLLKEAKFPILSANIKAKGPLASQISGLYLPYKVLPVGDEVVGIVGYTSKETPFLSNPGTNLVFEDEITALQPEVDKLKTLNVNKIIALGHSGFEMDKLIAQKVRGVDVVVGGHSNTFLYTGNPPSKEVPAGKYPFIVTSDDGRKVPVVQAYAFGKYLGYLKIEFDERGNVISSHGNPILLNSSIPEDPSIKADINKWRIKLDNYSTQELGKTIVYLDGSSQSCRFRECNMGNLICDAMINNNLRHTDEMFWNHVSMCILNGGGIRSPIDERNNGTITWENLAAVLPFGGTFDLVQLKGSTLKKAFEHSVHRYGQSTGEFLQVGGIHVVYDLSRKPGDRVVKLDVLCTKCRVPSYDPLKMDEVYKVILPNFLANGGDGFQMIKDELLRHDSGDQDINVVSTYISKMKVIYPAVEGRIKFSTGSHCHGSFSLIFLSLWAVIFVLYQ
Chain of CD73 in whole blood (P21589 27-574): as above

For orientation: IC50 means the midpoint of a concentration-inhibition curve. Turning to `COC1CN(c2ncnc3nn(-c4c[nH]c(=O)[nH]c4=O)cc23)CC1(F)F` (stereo not drawn) [Example 13.11, 5-[4-(3,3-Difluoro-4-methoxy-pyrrolidin-1-yl)pyrazolo[3,4-d]pyrimidin-2-yl]-1H-pyrimidine-2,4-dione], the IC50 in experiment [1] stood at 1.5 nM; in experiment [2], 49.2 nM; in experiment [3], 3.2 nM.

Turning to `O=c1[nH]cc(-n2cc3c(N4C[C@H]5CCC[C@H]5C4)ncnc3n2)c(=O)[nH]1` [Example 13.4, 5-[4-[(3aR,6aS)-3,3a,4,5,6,6a-Hexahydro-1H-cyclopenta[c]pyrrol-2-yl]pyrazolo[3,4-d]pyrimidin-2-yl]-1H-pyrimidine-2,4-dione], the IC50 in experiment [1] is 14.1 nM; in experiment [2], 95 nM; in experiment [3], 35.3 nM.

`O=c1[nH]cc(-c2cc3c(N4CCC(CO)C4)ncnc3s2)c(=O)[nH]1` (stereo not drawn) [Example 1, 5-[4-[3-(Hydroxymethyl)pyrrolidin-1-yl]thieno[2,3-d]pyrimidin-6-yl]-1H-pyrimidine-2,4-dione]: the IC50 in experiment [1] was determined as 8750 nM; in experiment [2] it was 715 nM; in experiment [3] it was 2340 nM.

For `O=c1[nH]cc(-n2cc3c(N4CC(F)(F)C5(CC5)C4)ncc(Cl)c3n2)c(=O)[nH]1` [Example 28.1, 5-[7-chloro-4-(7,7-difluoro-5-azaspiro[2.4]heptan-5-yl)pyrazolo[4,3-c]pyridin-2-yl]-1H-pyrimidine-2,4-dione], the IC50 in experiment [1] came out at 20 nM; in experiment [2], 15 nM; in experiment [3] it was 3.6 nM.
